Measurements from US20250382344A1, “Soluble GLP1/GIP/NPY2 Receptor Triple Agonists” (Boehringer Ingelheim International GmH, priority 2024, published 2025).
Where two headings read alike, the source gives them in different places.

Key:
Normal NMRI Mice = test: Effect on acute food intake in normal NMRI mice; type: in vivo; settings: male NMRI mice, single subcutaneous dose 100 nmol/kg, 24 hours food intake normalized to vehicle group
Method: Male NMRI mice were obtained from Janvier (Janvier Labs, France) or from Charles River (Charles River Research Models & Services Germany GmbH) at the age of 3 weeks. The animals get a microchip (Datamars, Slim Microchip T-SL) for individual identification after delivery. They were housed with 4 mice per cage under a 12/12 dark-light cycle, light off at 3 p.m. Room temperature was controlled to 21° C.+/−1° C. and humidity 60%+/−20%. Mice had ad libitum access to regular rodent chow (KLIBA Nafag 3040 or Altromin 1324, Brogaarden, Denmark) and tap water.
Latest transfer into the HM2-System of MBRose, Denmark (real-time monitoring system of food- and water intake) of the animals 5 days before study start, to allow acclimatization to experimental conditions. As the animals were uniquely identified with the microchips, each individual animal was identified by its own microchip upon entry and exit from the food channel via antennae. Randomization of the mice for each study group (n=8; age earliest 6 weeks old) was based on food intake (middle of last three days 24 h-interval) and bodyweight directly before start of the study. A vehicle treated (50 mM phosphate buffer pH 7.4 with 3.5% mannitol) group was included in each experiment. To have the same nutrition standard for each animal the food access was locked eight hours before dark phase. One hour before night, the animals were once treated subcutaneously with the test peptide. Food intake was reported hourly for a period of 24 hours.

hGIPR = target: T1, hGIPR (Homo sapiens, UniProt P48546); test: hGIPR CreLuc assay in 0.5% and 100% plasma (CHO CRE-luciferase reporter cells); type: cell-based
T1 construct: expressed in transfected cells; host or cells: CHO CRE-luciferase reporter cells
T1 sequence (P48546 22-466): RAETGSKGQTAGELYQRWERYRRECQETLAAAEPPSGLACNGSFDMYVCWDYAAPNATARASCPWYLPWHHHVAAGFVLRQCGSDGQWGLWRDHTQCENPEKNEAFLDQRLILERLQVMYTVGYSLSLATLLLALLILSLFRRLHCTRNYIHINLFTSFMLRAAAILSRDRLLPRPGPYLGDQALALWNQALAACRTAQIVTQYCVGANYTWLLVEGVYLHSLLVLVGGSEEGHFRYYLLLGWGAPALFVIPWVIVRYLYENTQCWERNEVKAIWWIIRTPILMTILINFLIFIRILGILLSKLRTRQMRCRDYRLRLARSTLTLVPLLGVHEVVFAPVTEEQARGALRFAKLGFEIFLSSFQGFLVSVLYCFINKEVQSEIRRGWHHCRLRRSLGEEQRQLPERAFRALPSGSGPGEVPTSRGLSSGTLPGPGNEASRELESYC

[1] = Mouse PK after intravenous application; type: in vivo; settings: plasma, male NMRI mice, intravenous 30-60 nmol/kg, non-compartmental analysis
Method in brief: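 Male NMRI mice (30–40 g) dosed 30-60 nmol/kg by tail vein in 50 mM phosphate buffer pH 7.4/3.5% mannitol. Saphenous EDTA blood sampled from conscious animals up to 56 h; plasma peptide quantified by LC-MS. Parameters from non-compartmental analysis of individual profiles.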

[2] = Solubility in 0.1 M phosphate buffer at pH 7; type: physicochemical; settings: 0.1 M phosphate buffer at pH 7, 10 mg/mL final peptide concentration, shaking 2 hours at room temperature, peptides as TFA-salts; measured sample pH 6.5-7.0
hNPY2R = target: T2, hNPY2R (Homo sapiens, UniProt P49146); test: hNPY2R CreLuc assay in 0.5% and 100% plasma (HEK-293 CRE-luciferase reporter cells); type: cell-based; settings: HEK-293 reporter cells
T2 construct: expressed in transfected cells; host or cells: HEK-293 CRE-luciferase reporter cells
T2 sequence (P49146 1-381): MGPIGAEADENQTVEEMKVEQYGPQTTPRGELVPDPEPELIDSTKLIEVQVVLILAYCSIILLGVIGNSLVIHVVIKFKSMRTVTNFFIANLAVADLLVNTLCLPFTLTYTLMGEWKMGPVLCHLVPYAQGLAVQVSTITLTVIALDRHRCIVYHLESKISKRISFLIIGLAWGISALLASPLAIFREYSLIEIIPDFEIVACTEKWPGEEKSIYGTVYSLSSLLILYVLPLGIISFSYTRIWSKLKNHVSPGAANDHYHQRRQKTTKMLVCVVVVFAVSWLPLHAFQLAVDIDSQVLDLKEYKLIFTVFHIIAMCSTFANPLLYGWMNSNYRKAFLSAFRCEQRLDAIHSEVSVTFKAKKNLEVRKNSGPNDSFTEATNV

hGLP1R = target: T3, hGLP1R (Homo sapiens, UniProt P43220); test: hGLP1R CreLuc assay in 0.5% and 100% plasma (HEK-293 CRE-luciferase reporter cells); type: cell-based; settings: HEK-293 reporter cells
T3 construct: expressed in transfected cells; host or cells: HEK-293 CRE-luciferase reporter cells

[3] = 0.5% human plasma, read-out: hGIPR 0.5% hP
[4] = 100% human plasma, read-out: hGIPR 100% hP
[5] = 0.5% human plasma, read-out: hGLP1R 0.5% hP

T3 sequence (P43220 24-463): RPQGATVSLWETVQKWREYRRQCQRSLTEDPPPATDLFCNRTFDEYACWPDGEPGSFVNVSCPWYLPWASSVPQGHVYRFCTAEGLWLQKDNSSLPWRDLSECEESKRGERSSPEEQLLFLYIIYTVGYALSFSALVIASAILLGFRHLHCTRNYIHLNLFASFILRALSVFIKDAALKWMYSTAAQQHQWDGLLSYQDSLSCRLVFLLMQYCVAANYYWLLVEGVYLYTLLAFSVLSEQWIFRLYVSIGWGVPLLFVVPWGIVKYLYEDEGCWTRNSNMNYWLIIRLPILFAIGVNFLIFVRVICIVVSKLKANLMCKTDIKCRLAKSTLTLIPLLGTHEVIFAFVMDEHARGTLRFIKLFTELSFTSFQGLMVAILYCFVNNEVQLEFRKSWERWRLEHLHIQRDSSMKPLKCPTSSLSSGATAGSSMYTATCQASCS

CC[C@H](C)[C@H](NC(=O)[C@H](CC(C)C)NC(=O)[C@H](Cc1c[nH]cn1)NC(=O)[C@H](CCCNC(=N)N)NC(=O)[C@@H](NC(=O)[C@H](Cc1ccccc1)NC(=O)[C@H](C)NC(=O)C(C)(C)NC(=O)[C@H](CCC(N)=O)NC(=O)[C@H](C)NC(=O)[C@H](CCC(N)=O)NC(=O)[C@H](CCCCN)NC(=O)[C@H](CCC(=O)O)NC(=O)[C@H](CC(C)C)NC(=O)C(C)(C)NC(=O)[C@@H](NC(=O)[C@H](CO)NC(=O)[C@H](Cc1ccc(O)cc1)NC(=O)[C@H](CC(=O)O)NC(=O)[C@H](CO)NC(=O)[C@@H](NC(=O)[C@H](Cc1ccccc1)NC(=O)[C@@H](NC(=O)CNC(=O)[C@H](CCC(=O)O)NC(=O)C(C)(C)NC(=O)[C@@H](N)Cc1ccc(O)cc1)[C@@H](C)O)[C@@H](C)O)[C@@H](C)CC)C(C)C)C(=O)N[C@@H](CC(N)=O)C(=O)N[C@@H](CCCCNC(=O)[C@@H](N)CCCCNC(=O)CC[C@H](NC(=O)CC[C@H](NC(=O)CC[C@H](NC(=O)CC[C@H](NC(=O)CC[C@H](NC(=O)CC[C@H](NC(=O)CCCCCCCCCCCCCCCCCCC(=O)O)C(=O)O)C(=O)O)C(=O)O)C(=O)O)C(=O)O)C(=O)O)C(=O)NC(C)(C)C(=O)N[C@H](C(=O)N[C@@H](CCCNC(=N)N)C(=O)N[C@@H](CCC(N)=O)C(=O)N[C@@H](CCCNC(=N)N)C(=O)N[C@@H](Cc1ccc(O)cc1)C(N)=O)[C@@H](C)O [Compound 125, Y-Aib-E-G-T-F-T-S-D-Y-S-I-Aib-L-E-K-Q-A-Q-Aib-A-F-V-R-H-L-I-N-K(1,3)-Aib-T-R-Q-R-Y-NH2.C20DA-gGlu-gGlu-gGlu-gGlu-gGlu-gGlu-eLys(1,2)]
Acute Food Intake 24 hours 100 nmol/kg [% CTL] (Normal NMRI Mice): 55 % CTL | EC50 (hGIPR; [3]): 0.4 nM | MRT [1]: 21.2 h | solubility at 2 h [2]: 6700 µg/mL | EC50 (hNPY2R; 100% human plasma, read-out: hNPY2R 100% hP): 60.8 nM

CC[C@H](C)[C@H](NC(=O)[C@H](CC(C)C)NC(=O)[C@H](Cc1c[nH]cn1)NC(=O)[C@H](CCCNC(=N)N)NC(=O)[C@@H](NC(=O)[C@H](Cc1ccccc1)NC(=O)[C@H](C)NC(=O)C(C)(C)NC(=O)[C@H](CCC(N)=O)NC(=O)[C@H](C)NC(=O)[C@H](CCC(N)=O)NC(=O)[C@H](CCCCN)NC(=O)[C@H](CCC(=O)O)NC(=O)[C@H](CC(C)C)NC(=O)C(C)(C)NC(=O)[C@@H](NC(=O)[C@H](CO)NC(=O)[C@H](Cc1ccc(O)cc1)NC(=O)[C@H](CC(=O)O)NC(=O)[C@H](CO)NC(=O)[C@@H](NC(=O)[C@H](Cc1ccccc1)NC(=O)[C@@H](NC(=O)CNC(=O)[C@H](CCC(=O)O)NC(=O)C(C)(C)NC(=O)[C@@H](N)Cc1ccc(O)cc1)[C@@H](C)O)[C@@H](C)O)[C@@H](C)CC)C(C)C)C(=O)N[C@@H](CC(N)=O)C(=O)N[C@@H](CCCCNC(=O)CCCCCNC(=O)CCCCCNC(=O)CC[C@H](NC(=O)CC[C@H](NC(=O)CC[C@H](NC(=O)CC[C@H](NC(=O)CC[C@H](NC(=O)CCCCCCCCCCCCCCCCCCC(=O)O)C(=O)O)C(=O)O)C(=O)O)C(=O)O)C(=O)O)C(=O)NC(C)(C)C(=O)N[C@H](C(=O)N[C@@H](CCCNC(=N)N)C(=O)N[C@@H](CCC(N)=O)C(=O)N[C@@H](CCCNC(=N)N)C(=O)N[C@@H](Cc1ccc(O)cc1)C(N)=O)[C@@H](C)O [Compound 106, Y-Aib-E-G-T-F-T-S-D-Y-S-I-Aib-L-E-K-Q-A-Q-Aib-A-F-V-R-H-L-I-N-K(1,3)-Aib-T-R-Q-R-Y-NH2.C20DA-gGlu-gGlu-gGlu-gGlu-gGlu-AHX-AHX(1,2)]
Acute Food Intake 24 hours 100 nmol/kg [% CTL] (Normal NMRI Mice): 60 % CTL | EC50 (hGIPR; [3]): 0.2 nM | MRT [1]: 12.8 h | solubility at 2 h [2]: 9200 µg/mL | EC50 (hNPY2R; 0.5% human plasma, read-out: hNPY2R 0.5% hP): 7.1 nM

CC[C@H](C)[C@H](NC(=O)[C@H](Cc1ccccc1)NC(=O)[C@H](C)NC(=O)C(C)(C)NC(=O)[C@H](CCC(N)=O)NC(=O)[C@H](C)NC(=O)[C@H](CCC(N)=O)NC(=O)[C@H](CCCCN)NC(=O)[C@H](CCC(=O)O)NC(=O)[C@H](CC(C)C)NC(=O)[C@](C)(CC(C)C)NC(=O)[C@@H](NC(=O)[C@H](CO)NC(=O)[C@H](Cc1ccc(O)cc1)NC(=O)[C@H](CC(=O)O)NC(=O)[C@H](CO)NC(=O)[C@@H](NC(=O)[C@H](Cc1ccccc1)NC(=O)[C@@H](NC(=O)CNC(=O)[C@H](CCC(=O)O)NC(=O)C(C)(C)NC(=O)[C@@H](N)Cc1ccc(O)cc1)[C@@H](C)O)[C@@H](C)O)[C@@H](C)CC)C(=O)N[C@@H](CCCNC(=N)N)C(=O)N[C@@H](Cc1c[nH]cn1)C(=O)N[C@@H](CC(C)C)C(=O)N[C@H](C(=O)N[C@@H](CC(N)=O)C(=O)N[C@@H](CCCCNC(=O)[C@@H](N)CCCCNC(=O)CC[C@H](NC(=O)CC[C@H](NC(=O)CC[C@H](NC(=O)CC[C@H](NC(=O)CC[C@H](NC(=O)CC[C@H](NC(=O)CCCCCCCCCCCCCCCCCCC(=O)O)C(=O)O)C(=O)O)C(=O)O)C(=O)O)C(=O)O)C(=O)O)C(=O)NC(C)(C)C(=O)N[C@H](C(=O)N[C@@H](CCCNC(=N)N)C(=O)N[C@@H](CCC(N)=O)C(=O)N[C@@H](CCCNC(=N)N)C(=O)N[C@@H](Cc1ccc(O)cc1)C(N)=O)[C@@H](C)O)[C@@H](C)CC [Compound 53, Y-Aib-E-G-T-F-T-S-D-Y-S-I-aMeL-L-E-K-Q-A-Q-Aib-A-F-I-R-H-L-I-N-K(1,3)-Aib-T-R-Q-R-Y-NH2.C20DA-gGlu-gGlu-gGlu-gGlu-gGlu-gGlu-eLys(1,2)]
Acute Food Intake 24 hours 100 nmol/kg [% CTL] (Normal NMRI Mice): 47 % CTL | EC50 (hGIPR; [3]): 0.1 nM | EC50 (hGIPR; [4]): 1.7 nM | MRT [1]: 14.4 h | solubility at 2 h [2]: 10000 µg/mL | EC50 (hGLP1R; [5]): 0.3 nM

CC[C@H](C)[C@H](NC(=O)[C@H](CC(C)C)NC(=O)[C@H](Cc1c[nH]cn1)NC(=O)[C@H](CCCNC(=N)N)NC(=O)[C@@H](NC(=O)[C@H](Cc1ccccc1)NC(=O)[C@H](C)NC(=O)C(C)(C)NC(=O)[C@H](CCC(N)=O)NC(=O)[C@H](C)NC(=O)[C@H](CCC(N)=O)NC(=O)[C@H](CCCCN)NC(=O)[C@H](CCC(=O)O)NC(=O)[C@H](CC(C)C)NC(=O)[C@](C)(CC(C)C)NC(=O)[C@@H](NC(=O)[C@H](CO)NC(=O)[C@H](Cc1ccc(O)cc1)NC(=O)[C@H](CC(=O)O)NC(=O)[C@H](CO)NC(=O)[C@@H](NC(=O)[C@H](Cc1ccccc1)NC(=O)[C@@H](NC(=O)CNC(=O)[C@H](CCC(=O)O)NC(=O)C(C)(C)NC(=O)[C@@H](N)Cc1ccc(O)cc1)[C@@H](C)O)[C@@H](C)O)[C@@H](C)CC)C(C)C)C(=O)N[C@@H](CC(N)=O)C(=O)N[C@@H](CCCCNC(=O)[C@@H](N)CCCCNC(=O)CC[C@H](NC(=O)CC[C@H](NC(=O)CC[C@H](NC(=O)CC[C@H](NC(=O)CC[C@H](NC(=O)CC[C@H](NC(=O)CCCCCCCCCCCCCCCCCCC(=O)O)C(=O)O)C(=O)O)C(=O)O)C(=O)O)C(=O)O)C(=O)O)C(=O)NC(C)(C)C(=O)N[C@H](C(=O)N[C@@H](CCCNC(=N)N)C(=O)N[C@@H](CCC(N)=O)C(=O)N[C@@H](CCCNC(=N)N)C(=O)N[C@@H](Cc1ccc(O)cc1)C(N)=O)[C@@H](C)O [Compound 150, Y-Aib-E-G-T-F-T-S-D-Y-S-I-aMeL-L-E-K-Q-A-Q-Aib-A-F-V-R-H-L-I-N-K(1,3)-Aib-T-R-Q-R-Y-NH2.C20DA-gGlu-gGlu-gGlu-gGlu-gGlu-gGlu-eLys(1,2)]
Acute Food Intake 24 hours 100 nmol/kg [% CTL] (Normal NMRI Mice): 46 % CTL | EC50 (hGIPR; [3]): 0.1 nM | EC50 (hGIPR; [4]): 2.8 nM | MRT [1]: 15.9 h | solubility at 2 h [2]: 4800 µg/mL | EC50 (hGLP1R; [5]): 0.5 nM | EC50 (hGLP1R; 100% human plasma, read-out: hGLP1R 100% hP): 1.7 nM
